Data reported in ChEMBL document CHEMBL1697781, “Assessment of the health effects of chemicals in humans: II. Construction of an adverse effects database for QSAR modeling” (Curr Drug Discov Technol, 2004).

How the values were obtained:
Conditions in all cases: human; call rule not given here
Hepatotoxicity [1] = experiment: FDA HLAED, serum glutamic pyruvic transaminase (SGPT) increase
Hepatotoxicity [2] = experiment: FDA HLAED, liver enzyme composite activity
Hepatotoxicity [3] = experiment: FDA HLAED, alkaline phosphatase increase
Hepatotoxicity [4] = experiment: FDA HLAED, lactate dehydrogenase (LDH) increase
Hepatotoxicity [5] = experiment: FDA HLAED, serum glutamic oxaloacetic transaminase (SGOT) increase
Hepatotoxicity [6] = experiment: FDA HLAED, gamma-glutamyl transferase (GGT) increase
For GGT Increase - Index Value in this document: reference of the scale not given here.
For LDH Increase - Index Value in this document: reference of the scale not given here.

With `CC(C)(C)NC(=O)[C@@H]1C[C@@H]2CCCC[C@@H]2CN1C[C@@H](O)[C@H](Cc1ccccc1)NC(=O)[C@H](CC(N)=O)NC(=O)c1ccc2ccccc2n1` the “SGPT Increase - Activity Score” value (Hepatotoxicity [1]) was “Inactive”, the “SGPT Increase - Index Value” (Hepatotoxicity [1]) was 0 and the “SGPT Increase - Number of Reports” value (Hepatotoxicity [1]) was under 4. For the same compound, the “Composite Activity - Active” value (Hepatotoxicity [2]; Liver) was 0, the “Composite Activity - Marginal” value (Hepatotoxicity [2]; Liver) was 0 and the “Composite Activity - Score” value (Hepatotoxicity [2]; Liver) was “Inactive”. The “Alkaline Phosphatase Increase - Activity Score” value (Hepatotoxicity [3]) was “Inactive”, the “Alkaline Phosphatase Increase - Index Value” (Hepatotoxicity [3]) was 0 and the “Alkaline Phosphatase Increase - Number of Reports” value (Hepatotoxicity [3]) was under 4. The “LDH Increase - Activity Score” value (Hepatotoxicity [4]) was “Inactive”, the “LDH Increase - Index Value” (Hepatotoxicity [4]) was 0 and the “LDH Increase - Number of Reports” value (Hepatotoxicity [4]) was under 4. The “SGOT Increase - Activity Score” value (Hepatotoxicity [5]) was “Inactive”, the “SGOT Increase - Index Value” (Hepatotoxicity [5]) was 0 and the “SGOT Increase - Number of Reports” value (Hepatotoxicity [5]) was under 4. For the same compound, the “GGT Increase - Activity Score” value (Hepatotoxicity [6]) was “Inactive”, the “GGT Increase - Index Value” (Hepatotoxicity [6]) was 0 and the “GGT Increase - Number of Reports” value (Hepatotoxicity [6]) was under 4.

`C=C1CC[C@@]2(O)[C@H]3Cc4ccc(O)c5c4[C@@]2(CCN3CC2CC2)[C@H]1O5` was tested, and the “SGPT Increase - Activity Score” value (Hepatotoxicity [1]) was “Inactive”, the “SGPT Increase - Index Value” (Hepatotoxicity [1]) was 0 and the “SGPT Increase - Number of Reports” value (Hepatotoxicity [1]) was under 4. The “Composite Activity - Active” value (Hepatotoxicity [2]) was 0, the “Composite Activity - Marginal” value (Hepatotoxicity [2]) was 0 and the “Composite Activity - Score” value (Hepatotoxicity [2]) was “Inactive”. For the same compound, the “Alkaline Phosphatase Increase - Activity Score” value (Hepatotoxicity [3]) was “Inactive”, the “Alkaline Phosphatase Increase - Index Value” (Hepatotoxicity [3]) was 0 and the “Alkaline Phosphatase Increase - Number of Reports” value (Hepatotoxicity [3]) was under 4. For the same compound, the “LDH Increase - Activity Score” value (Hepatotoxicity [4]) was “Inactive”, the “LDH Increase - Index Value” (Hepatotoxicity [4]) was 0 and the “LDH Increase - Number of Reports” value (Hepatotoxicity [4]) was under 4. For the same compound, the “SGOT Increase - Activity Score” value (Hepatotoxicity [5]) was “Inactive”, the “SGOT Increase - Index Value” (Hepatotoxicity [5]) was 0 and the “SGOT Increase - Number of Reports” value (Hepatotoxicity [5]) was under 4. The “GGT Increase - Activity Score” value (Hepatotoxicity [6]) was “Inactive”, the “GGT Increase - Index Value” (Hepatotoxicity [6]) was 0 and the “GGT Increase - Number of Reports” value (Hepatotoxicity [6]) was under 4.

`C[C@H]1O[C@H](O[C@H]2[C@H](O)[C@@H](O)[C@@H](O[C@H]3[C@H](O)[C@@H](O)C(O)O[C@@H]3CO)O[C@@H]2CO)[C@H](O)[C@@H](O)[C@@H]1N[C@H]1C=C(CO)[C@@H](O)[C@H](O)[C@H]1O` (stereo partly drawn) [ACARBOSE] was tested, and the “SGPT Increase - Activity Score” value (Hepatotoxicity [1]) was “Active”, the “SGPT Increase - Index Value” (Hepatotoxicity [1]) was 5.2 and the “SGPT Increase - Number of Reports” value (Hepatotoxicity [1]) was “>= 4”. For the same compound, the “Composite Activity - Active” value (Hepatotoxicity [2]) was 3, the “Composite Activity - Marginal” value (Hepatotoxicity [2]) was 0 and the “Composite Activity - Score” value (Hepatotoxicity [2]) was “Active”. The “Alkaline Phosphatase Increase - Activity Score” value (Hepatotoxicity [3]) was “Inactive”, the “Alkaline Phosphatase Increase - Index Value” (Hepatotoxicity [3]) was 0 and the “Alkaline Phosphatase Increase - Number of Reports” value (Hepatotoxicity [3]) was under 4. For the same compound, the “LDH Increase - Activity Score” value (Hepatotoxicity [4]) was “Inactive”, the “LDH Increase - Index Value” (Hepatotoxicity [4]) was 2.6 and the “LDH Increase - Number of Reports” value (Hepatotoxicity [4]) was under 4. For the same compound, the “SGOT Increase - Activity Score” value (Hepatotoxicity [5]) was “Active”, the “SGOT Increase - Index Value” (Hepatotoxicity [5]) was 5.2 and the “SGOT Increase - Number of Reports” value (Hepatotoxicity [5]) was “>= 4”. The “GGT Increase - Activity Score” value (Hepatotoxicity [6]) was “Active”, the “GGT Increase - Index Value” (Hepatotoxicity [6]) was 4.3 and the “GGT Increase - Number of Reports” value (Hepatotoxicity [6]) was “>= 4”.

With `CCCC(=O)Nc1ccc(OCC(O)CNC(C)C)c(C(C)=O)c1` (stereo not drawn) [ACEBUTOLOL] the “SGPT Increase - Activity Score” value (Hepatotoxicity [1]) was “Marginally Active”, the “SGPT Increase - Index Value” (Hepatotoxicity [1]) was 3.3 and the “SGPT Increase - Number of Reports” value (Hepatotoxicity [1]) was “>= 4”. For the same compound, the “Composite Activity - Active” value (Hepatotoxicity [2]) was 0, the “Composite Activity - Marginal” value (Hepatotoxicity [2]) was 3 and the “Composite Activity - Score” value (Hepatotoxicity [2]) was “Inactive”. The “Alkaline Phosphatase Increase - Activity Score” value (Hepatotoxicity [3]) was “Marginally Active”, the “Alkaline Phosphatase Increase - Index Value” (Hepatotoxicity [3]) was 3.9 and the “Alkaline Phosphatase Increase - Number of Reports” value (Hepatotoxicity [3]) was “>= 4”. The “LDH Increase - Activity Score” value (Hepatotoxicity [4]) was “Marginally Active”, the “LDH Increase - Index Value” (Hepatotoxicity [4]) was 3.3 and the “LDH Increase - Number of Reports” value (Hepatotoxicity [4]) was “>= 4”. For the same compound, the “SGOT Increase - Activity Score” value (Hepatotoxicity [5]) was “Inactive”, the “SGOT Increase - Index Value” (Hepatotoxicity [5]) was 2.6 and the “SGOT Increase - Number of Reports” value (Hepatotoxicity [5]) was “>= 4”. The “GGT Increase - Activity Score” value (Hepatotoxicity [6]) was “Inactive”, the “GGT Increase - Index Value” (Hepatotoxicity [6]) was 0 and the “GGT Increase - Number of Reports” value (Hepatotoxicity [6]) was under 4.

In the case of `CC(=O)Nc1ccc(O)cc1` [ACETAMINOPHEN], the “SGPT Increase - Activity Score” value (Hepatotoxicity [1]) was “Active”, the “SGPT Increase - Index Value” (Hepatotoxicity [1]) was “No Shipping Units” and the “SGPT Increase - Number of Reports” value (Hepatotoxicity [1]) was “>= 4”. The “Composite Activity - Active” value (Hepatotoxicity [2]) was 2, the “Composite Activity - Marginal” value (Hepatotoxicity [2]) was 3 and the “Composite Activity - Score” value (Hepatotoxicity [2]) was “Active”. For the same compound, the “Alkaline Phosphatase Increase - Activity Score” value (Hepatotoxicity [3]) was “Marginally Active”, the “Alkaline Phosphatase Increase - Index Value” (Hepatotoxicity [3]) was “No Shipping Units” and the “Alkaline Phosphatase Increase - Number of Reports” value (Hepatotoxicity [3]) was “>= 4”. For the same compound, the “LDH Increase - Activity Score” value (Hepatotoxicity [4]) was “Marginally Active”, the “LDH Increase - Index Value” (Hepatotoxicity [4]) was “No Shipping Units” and the “LDH Increase - Number of Reports” value (Hepatotoxicity [4]) was “>= 4”. For the same compound, the “SGOT Increase - Activity Score” value (Hepatotoxicity [5]) was “Active”, the “SGOT Increase - Index Value” (Hepatotoxicity [5]) was “No Shipping Units” and the “SGOT Increase - Number of Reports” value (Hepatotoxicity [5]) was “>= 4”. For the same compound, the “GGT Increase - Activity Score” value (Hepatotoxicity [6]) was “Marginally Active”, the “GGT Increase - Index Value” (Hepatotoxicity [6]) was “No Shipping Units” and the “GGT Increase - Number of Reports” value (Hepatotoxicity [6]) was “>= 4”.

`CC(=O)NO` [ACETOHYDROXAMIC ACID] was tested, and the “SGPT Increase - Activity Score” value (Hepatotoxicity [1]) was “Inactive”, the “SGPT Increase - Index Value” (Hepatotoxicity [1]) was 0 and the “SGPT Increase - Number of Reports” value (Hepatotoxicity [1]) was under 4. For the same compound, the “Composite Activity - Active” value (Hepatotoxicity [2]) was 0, the “Composite Activity - Marginal” value (Hepatotoxicity [2]) was 0 and the “Composite Activity - Score” value (Hepatotoxicity [2]) was “Inactive”. The “Alkaline Phosphatase Increase - Activity Score” value (Hepatotoxicity [3]) was “Inactive”, the “Alkaline Phosphatase Increase - Index Value” (Hepatotoxicity [3]) was 0 and the “Alkaline Phosphatase Increase - Number of Reports” value (Hepatotoxicity [3]) was under 4. The “LDH Increase - Activity Score” value (Hepatotoxicity [4]) was “Inactive”, the “LDH Increase - Index Value” (Hepatotoxicity [4]) was 0 and the “LDH Increase - Number of Reports” value (Hepatotoxicity [4]) was under 4. For the same compound, the “SGOT Increase - Activity Score” value (Hepatotoxicity [5]) was “Inactive”, the “SGOT Increase - Index Value” (Hepatotoxicity [5]) was 0 and the “SGOT Increase - Number of Reports” value (Hepatotoxicity [5]) was under 4. The “GGT Increase - Activity Score” value (Hepatotoxicity [6]) was “Inactive”, the “GGT Increase - Index Value” (Hepatotoxicity [6]) was 0 and the “GGT Increase - Number of Reports” value (Hepatotoxicity [6]) was under 4.
